Results as given in PMC9570898, “Comparing Variants of the Cell-Penetrating Peptide sC18 to Design Peptide-Drug Conjugates” (Molecules, 2022).
No end group written: not given here.

Experiments:
HeLa cells [1] = assay: Cytotoxicity (resazurin) assay in HeLa cells; details: 24 h, 25 µM peptide, resazurin assay
Protocol: For cell viability assay, cells were (15,000 HeLa, 17,000 MCF-7 and 12,000 HFF-1 cells per well) seeded onto a 96-well plate and grown to 80–90% confluency. Cells were incubated with several peptide concentrations in a serum-free growth medium for 24 h under standard growth conditions. For the positive control, cells were treated with 70% EtOH for 7 min. After washing with DPBS, resazurin solution (10% in serum-free media, v/v) was incubated with the cells for 1 h under standard growth conditions. The cell viability was determined relative to untreated cells by measurement of the resorufin product at 595 nm (λex = 550 nm) on a Tecan infinite M200 plate reader (Tecan Group AG, Männedorf, Switzerland).
Figure 2 (A,B): Cytotoxicity profiles of the peptides in HeLa and HEK-293 cells. Cells were cultured and incubated at pH 7.4 for 24 h with different concentrations of peptide solutions. Untreated cells served as negative control; cells treated with 70% ethanol as positive control. Values from the positive control were subtracted from all data, and the untreated cells were set to 100%; assays were performed with n = 3 in triplicate. (C): Flow cytometry analysis of HeLa or HEK-293 cells after incubating 1 and 10 µM peptide solutions for 30 min at 37 °C; assays were conducted in triplicate n = 3. (D): Confocal laser scanning microscopy analysis of 10 µM CF-labeled peptides after 30 min of incubation in HeLa cells. Green: CF-labeled peptides; blue: Hoechst 33342 nuclear stain; scale bar is 10 µm.
Figure 5 (A): Cytotoxicity assay using HFF-1 cells. Different PDC concentrations were incubated with the cells for 24 h at 37 °C and a resazurin assay was conducted. (B): Dose-response curves for peptide drug conjugates were obtained using the resazurin assay. For this, HeLa cells were treated with various conjugate concentrations (2.5–70 µM) for 24 h at 37 °C. (C): Quantification of PDC internalization in HeLa cells; 10 µM PDC solutions were incubated with cells for 30 min at 37 °C and cells were inspected using a flow cytometer; assays were conducted in triplicate n = 3.

HeLa cells [2] = assay: Cellular uptake by flow cytometry in HeLa cells; assay type: cell-based, human; details: 1 and 10 µM CF-labeled peptide, 30 min, 37 °C, serum-free medium, triplicate n = 3
Protocol: Monolayer cellular uptake was quantified using flow cytometry. Cells were seeded onto a 24-well plate (HeLa: 90,000, HEK293: 100,000 and MCF-7 130,000 cells per well) and grown to 80–90% confluency. Then, cells were incubated with the labeled peptides/conjugates in a serum-free medium at 37 °C for various incubation times, and subsequently washed twice with PBS and detached with indicator-free trypsin resuspended in an indicator-free serum-containing medium. The cell suspension was transferred into a 96-well FACS plate and fluorescence was then measured by a Guava easyCyte flow cytometer (Merck, Darmstadt, Germany).The blue laser was used for all measurements, FSC (1137–1538), SSC (3020–4086), Grn-B (647–875) and Red-B (694–939). Cellular autofluorescence of untreated control cells was subtracted.

HeLa cells [3] = assay: Fluorescence microscopy of intracellular distribution in HeLa cells; assay type: cell-based, human; details: 10 µM CF-labeled peptide, 30 min, confocal fluorescence microscopy
Protocol: Cells were seeded into 8-well plates (HeLa cells 35,000 and HFF-1 25,000 cells per well, respectively) and grown to 80–90% confluency. Cells were treated with 10 μM CF- or dox-labeled peptides in a serum-free medium for 30 min at 37 °C. Ten minutes prior to the end of the incubation time, nuclei were stained with Hoechst33342. The peptide solution was removed, and cells were washed five times with PBS and covered with fresh medium including FBS. Microscopic analysis was performed using an inverse confocal TCS SP8 microscope (Leica Microsystems, Wetzlar, Germany), equipped with a 63× oil-immersion objective. Images were recorded with LAS X software (LAS_X_Core_3.7.6_25997, Leica Microsystems, Wetzlar, Germany). For the GUV analysis and the uptake of the peptide-drug conjugates the Keyence fluorescence tabletop microscope BZ-X800E (Keyence, Osaka, Japan), with a 60× oil immersion lens was used. Images were recorded with Keyence software (BZ-800X_Analyzer 1.1.1.8, Keyence, Osaka: Japan) and evaluated with Fiji.
Figure 6 Fluorescence microscope analysis of 5 µM conjugates after 30 min of incubation at 37 °C in HeLa and HFF-1 cells. Red: peptides coupled to red fluorophore Doxorubicin; blue: Hoechst 33342 nuclear stain; BF: brightfield to identify living cells; scale bar is 20 µm.

HEK-293 spheroids = assay: Flow cytometry of HEK-293 spheroids; assay type: cell-based, human; details: 10 µM CF-labeled peptides, 30 min or 1 h
Protocol: For the preparation and seeding of spheroids, cells were washed and trypsinized as described above. Cells were transferred into a fresh 15 mL centrifuge tube and centrifuged for 5 min at 300× g and rt. The supernatant was removed carefully and the pellet was resuspended in an appropriate medium supplemented with FBS. Cells were counted and a cell mixture was prepared, which would be sufficient for 100 drops (3 mL). Within this mixture a total amount of 1.5 × 10^6 cells (HEK-293 and HeLa cells) and 20% (v/v) methylcellulose (1.2 mg/mL) were required. The missing volume was filled up with an appropriate medium containing FBS; 30 μL drops were pipetted into the inverted lid of a petri dish (15,000 cells per drop), the bottom was covered with PBS and spheroids were grown in hanging drops for two or three days at 37 °C and 5% CO2, respectively.
For flow cytometry studies with tumor spheroids, the spheroids were prepared and grown as described above (4.7). […] After the spheroids started to fall apart, 850 μL of medium with FBS (indicator free) was added and the spheroids were resuspended to generate a homogenous cell suspension; 200 μL of each sample were transferred into a fresh round-bottom 96-well plate and analyzed on a Guava® easyCyte flow cytometer (Merck, Darmstadt, Germany). […]

RLRKLLRKFLRK-NH2 [sC18*^R,L]
cell viability at 25 µM (HeLa cells [1]): ~35% | cellular uptake (HeLa cells [2]): highly significant and enhanced internalization | intracellular accumulation / uptake pattern (HeLa cells [3]): highly enriched all over the cytosol including uptake in the nuclei | accumulation in spheroids (HEK-293 spheroids): most efficient variants
